Measured values: PubChem BioAssay AID2060603 (Molecular Pharmacology Branch, DTP, NCI, 2025)
Where “and” joins values, the source holds several entries; their conditions need not be identical. Equal entries are not always repeated.

Tested on: 422866-222-R5-J1-PDC spheroid viability
Experiment: Anticancer human tumor 422866-222-R5-J1-PDC patient-derived pancreatic adenocarcinoma cell line growth inhibition [CLK]
Conditions: spheroids with HUVEC and MSC; for viability, T/C: stronger effect = lower value
Summary of the method: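 Patient-derived tumor cells grown as complex spheroids with HUVEC endothelial cells and mesenchymal stem cells, treated with drug combinations. Concentrations descend in half-log steps from near clinical Cmax, or from 10 microM if Cmax unknown.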

[1] = curve of first compound, second compound 0.0316 µM
[2] = curve of first compound, second compound 0.1 µM
[3] = curve of first compound, second compound 0.316 µM
[4] = curve of first compound, second compound 1 µM
[5] = curve of first compound, second compound 3.16 µM
[6] = curve of first compound, second compound 10 µM
[7] = second compound 0.0316 µM, first compound 0.0316 µM
[8] = second compound 0.0316 µM, first compound 0.1 µM
[9] = second compound 0.0316 µM, first compound 0.316 µM
[10] = second compound 0.0316 µM, first compound 1 µM
[11] = second compound 0.0316 µM, first compound 3.16 µM
[12] = second compound 0.0316 µM, first compound 10 µM
[13] = second compound 0.1 µM, first compound 0.0316 µM
[14] = second compound 0.1 µM, first compound 0.1 µM
[15] = second compound 0.1 µM, first compound 0.316 µM
[16] = second compound 0.1 µM, first compound 1 µM
[17] = second compound 0.1 µM, first compound 3.16 µM
[18] = second compound 0.1 µM, first compound 10 µM
[19] = second compound 0.316 µM, first compound 0.0316 µM
[20] = second compound 0.316 µM, first compound 0.1 µM
[21] = second compound 0.316 µM, first compound 0.316 µM
[22] = second compound 0.316 µM, first compound 1 µM
[23] = second compound 0.316 µM, first compound 3.16 µM
[24] = second compound 0.316 µM, first compound 10 µM
[25] = second compound 1 µM, first compound 0.0316 µM
[26] = second compound 1 µM, first compound 0.1 µM
[27] = second compound 1 µM, first compound 0.316 µM
[28] = second compound 1 µM, first compound 1 µM
[29] = second compound 1 µM, first compound 3.16 µM
[30] = second compound 1 µM, first compound 10 µM
[31] = second compound 3.16 µM, first compound 0.0316 µM
[32] = second compound 3.16 µM, first compound 0.1 µM
[33] = second compound 3.16 µM, first compound 0.316 µM
[34] = second compound 3.16 µM, first compound 1 µM
[35] = second compound 3.16 µM, first compound 3.16 µM
[36] = second compound 3.16 µM, first compound 10 µM
[37] = second compound 10 µM, first compound 0.0316 µM
[38] = second compound 10 µM, first compound 0.1 µM
[39] = second compound 10 µM, first compound 0.316 µM
[40] = second compound 10 µM, first compound 1 µM
[41] = second compound 10 µM, first compound 3.16 µM
[42] = second compound 10 µM, first compound 10 µM
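Note: spheroids exposed to agents for seven days before readout.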

## CC(Nc1ccc2c(c1)OCCn1cc(N3C(=O)OCC3C(F)F)nc1-2)C(N)=O (stereo not drawn) + CN1CCN(c2cc(C(=O)Nc3cc4cc(-c5cnn(C)c5)ccc4cn3)ccn2)CC1
[1]
  IC50: 265 nM
[2]
  IC50: 389 nM
[3]
  IC50: 307 nM
[4]
  IC50: < 31.6 nM
[5]
  IC50: < 31.6 nM
[6]
  IC50: < 31.6 nM
[7]
  viability, T/C: 81.1%
[8]
  viability, T/C: 78.1%
[9]
  viability, T/C: 44.5%
[10]
  viability, T/C: 37.3%
[11]
  viability, T/C: 34%
[12]
  viability, T/C: 27%
[13]
  viability, T/C: 103%
[14]
  viability, T/C: 68.3%
[15]
  viability, T/C: 55.3%
[16]
  viability, T/C: 40.5%
[17]
  viability, T/C: 33.4%
[18]
  viability, T/C: 31.8%
[19]
  viability, T/C: 88.7%
[20]
  viability, T/C: 63.1%
[21]
  viability, T/C: 50%
[22]
  viability, T/C: 42.6%
[23]
  viability, T/C: 36.5%
[24]
  viability, T/C: 34.3%
[25]
  viability, T/C: 27.5%
[26]
  viability, T/C: 29.1%
[27]
  viability, T/C: 25.9%
[28]
  viability, T/C: 22.4%
[29]
  viability, T/C: 21.3%
[30]
  viability, T/C: 18.6%
[31]
  viability, T/C: 9.59%
[32]
  viability, T/C: 11%
[33]
  viability, T/C: 11.1%
[34]
  viability, T/C: 10.5%
[35]
  viability, T/C: 13.8%
[36]
  viability, T/C: 12.3%
[37]
  viability, T/C: 2.29%
[38]
  viability, T/C: 1.76%
[39]
  viability, T/C: 2.37%
[40]
  viability, T/C: 1.83%
[41]
  viability, T/C: 3.35%
[42]
  viability, T/C: 2.02%

## COc1cccc2c1C(=O)c1c(O)c3c(c(O)c1C2=O)CC(O)(C(=O)CO)CC3OC1CC(N)C(O)C(C)O1 (stereo not drawn)
Compound 0.0316 µM
  viability, T/C: 57.2% and 67.1%
Compound 0.1 µM
  viability, T/C: 65.7% and 52.3%
Compound 0.316 µM
  viability, T/C: 44.2% and 30.3%
Compound 1 µM
  viability, T/C: 32.1% and 27%
Compound 3.16 µM
  viability, T/C: 28.3% and 26.7%
Compound 10 µM
  viability, T/C: 30.9% and 26%
Curve of compound
  IC50: 215 nM and 113 nM

## COc1ccc([C@@H](O)c2cc(-c3ncnc4cc(N5CCOCC5)ccc34)c(F)cc2Cl)nn1 + CNC(=O)c1ccc(Nc2nc(OC3CCCC3)c3c(-c4ccc5nc(C)oc5c4)c[nH]c3n2)c(OC)c1
[1]
  IC50: 2890 nM
[2]
  IC50: 2710 nM
[3]
  IC50: 775 nM
[4]
  IC50: 617 nM
[5]
  IC50: 548 nM
[6]
  IC50: 1300 nM
[7]
  viability, T/C: 113%
[8]
  viability, T/C: 91.6%
[9]
  viability, T/C: 77.5%
[10]
  viability, T/C: 70.2%
[11]
  viability, T/C: 45.1%
[12]
  viability, T/C: 35.2%
[13]
  viability, T/C: 106%
[14]
  viability, T/C: 81.9%
[15]
  viability, T/C: 84.1%
[16]
  viability, T/C: 62.5%
[17]
  viability, T/C: 45.4%
[18]
  viability, T/C: 34.5%
[19]
  viability, T/C: 69.7%
[20]
  viability, T/C: 63.1%
[21]
  viability, T/C: 73.1%
[22]
  viability, T/C: 44.7%
[23]
  viability, T/C: 44.4%
[24]
  viability, T/C: 32.9%
[25]
  viability, T/C: 63.3%
[26]
  viability, T/C: 58%
[27]
  viability, T/C: 57%
[28]
  viability, T/C: 45.4%
[29]
  viability, T/C: 38.3%
[30]
  viability, T/C: 37.9%
[31]
  viability, T/C: 54.5%
[32]
  viability, T/C: 66.2%
[33]
  viability, T/C: 43.5%
[34]
  viability, T/C: 47.8%
[35]
  viability, T/C: 45.9%
[36]
  viability, T/C: 37.7%
[37]
  viability, T/C: 48.5%
[38]
  viability, T/C: 63.6%
[39]
  viability, T/C: 56.8%
[40]
  viability, T/C: 44.1%
[41]
  viability, T/C: 48.9%
[42]
  viability, T/C: 36.6%

## Nc1ccccc1NC(=O)c1ccc(CNC(=O)OCc2cccnc2)cc1 + CNC(=O)c1ccc(Nc2nc(OC3CCCC3)c3c(-c4ccc5nc(C)oc5c4)c[nH]c3n2)c(OC)c1
[1]
  IC50: > 10000 nM
[2]
  IC50: > 10000 nM
[3]
  IC50: > 10000 nM
[4]
  IC50: 4640 nM
[5]
  IC50: > 10000 nM
[6]
  IC50: > 10000 nM
[7]
  viability, T/C: 115%
[8]
  viability, T/C: 121%
[9]
  viability, T/C: 157%
[10]
  viability, T/C: 90%
[11]
  viability, T/C: 68.7%
[12]
  viability, T/C: 74.7%
[13]
  viability, T/C: 106%
[14]
  viability, T/C: 116%
[15]
  viability, T/C: 114%
[16]
  viability, T/C: 99.8%
[17]
  viability, T/C: 77.9%
[18]
  viability, T/C: 79.2%
[19]
  viability, T/C: 82.5%
[20]
  viability, T/C: 76.5%
[21]
  viability, T/C: 77%
[22]
  viability, T/C: 80.8%
[23]
  viability, T/C: 64.5%
[24]
  viability, T/C: 50.9%
[25]
  viability, T/C: 75.1%
[26]
  viability, T/C: 67.6%
[27]
  viability, T/C: 69.1%
[28]
  viability, T/C: 60.8%
[29]
  viability, T/C: 58.5%
[30]
  viability, T/C: 39.1%
[31]
  viability, T/C: 65.7%
[32]
  viability, T/C: 60.2%
[33]
  viability, T/C: 77.6%
[34]
  viability, T/C: 76.2%
[35]
  viability, T/C: 60.6%
[36]
  viability, T/C: 49.6%
[37]
  viability, T/C: 67.2%
[38]
  viability, T/C: 60.6%
[39]
  viability, T/C: 71.9%
[40]
  viability, T/C: 61.2%
[41]
  viability, T/C: 67.3%
[42]
  viability, T/C: 48.1%
